From patent publication US4316955A, “Enzymatic deesterification of cephalosporin methyl esters” (Eli Lilly and Company, priority 1980, dated 1982)

Columns and labels:
[1] = tested on: A49492 (Streptomyces capillispira); test: Antibiotic disk sensitivity test of A49492; further: key: +: a plus indicates that a zone of inhibition was formed; -: a minus sign indicates that there was no inhibition zone; assay type: cell-based; details: ISP No. 2 agar seeded with 2% vegetative inoculum; amount per disk: Erythromycin 15 μg, Keflin 30 μg, Lincomycin 2 μg, Nystatin 100 U, Polymixin B 300 U, Streptomycin 10 μg, Tetracycline 30 μg, Vancomycin 5 μg
Protocol: Sodium chloride and sucrose tolerance were measured using ISP No. 2 agar. Antibiotic sensitivity was determined with sensitivity discs placed onto the surface of ISP No. 2 agar plates seeded with 2% vegetative inoculum.
In the table below, the column headed "Amount" indicates the amount of the antibiotic deposited on each disk.

[2] = tested on: enzyme produced by Streptomyces capillispira; test: Rate of enzymatic deesterification of cephalosporin methyl esters (titrimetric / spot-plate); assay type: biochemical
Protocol: Another detection method, called the spot plate method, was carried out by pipetting a carefully measured amount, usually 10 μl., of the mixture to be analyzed onto a filter paper sheet which had small zones outlined by lacquer so that liquids placed on the zones were isolated from each other. If the substrate compound was a nucleus ester, so that acylation was necessary, each zone was also spotted with 10 μl. of 2% sodium bicarbonate solution, and 20 μl. of 2.5% phenoxyacetyl chloride in petroleum ether. The spots were air-dried, and the paper sheets were overlaid on the agar surface of an assay plate which had been seeded with a spore suspension of B. subtilis. The sheets were left on the agar plates for about 45 minutes, and were then removed and the agar plates were incubated at 25° overnight. The sizes of the zones of inhibition were then measured, and the amount of cephalosporin acid in the sample was determined by comparison with the sizes of the zones produced by known amounts of the cephalosporin acid which was the product of the deesterification.
The above biological analytical methods are useful both for unpurified fermentation mixtures, and for purified enzyme preparations. Purified preparations are readily analyzed by titrimetric methods which determine the amount of acid produced by measuring the amounts of base needed to maintain constant pH during the reaction. Thus, the deesterification reaction is easily monitored with an automatic titrator by adding the enzyme preparation to an appropriate substrate solution and following the course of deesterification by the amount of base added to the sample by the automatic titrator.
The activity of the enzyme preparations in the following examples is described as a rate, usually measured in terms of (moles of substrate deesterified)/(mg. of protein or cells)(minute). In some instances, the activity of the enzyme was described in other ways, and such instances are explained in the pertinent examples.
The substrate against which enzyme activity was measured was methyl 7-amino-3-methyl-3-cephem-4-carboxylate unless otherwise stated.
In this experiment, the enzyme preparation of Example 16 was used to deesterify methyl cephalexin, and the rate of hydrolysis was measured by pH-stat titration. Reaction mixtures were prepared as shown in Example 16, except that 1 ml. of the enzyme preparation and 2 ml. of substrate solution were used, so that the final reaction mixture contained 2.5 mg./ml. of protein.
A purified enzyme preparation, prepared substantially as described in Example 15 above, and containing 0.66 mg./ml. of protein was used to deesterify methyl 7-amino(phenyl)acetamido-3-chloro-3-cephem-4-carboxylate(methyl cefaclor). […]

[3] = tested on: enzyme produced by Streptomyces capillispira; test: Deesterification shown by paper chromatography and bioautography; assay type: biochemical; details: 3-day culture, 30°, 16-20 hours; chromatogram acylated with phenoxyacetyl chloride; plate seeded with B. subtilis
Protocol: The usual method made use of filter paper chromatography, with 4/1 acetonitrile/water as the solvent.
If the substrate ester was a cephalosporin nucleus ester, having only an amino group at the 7-position, then the amount of acid could not be measured directly, because the nucleus acid is not active against the test organism.
The inoculated tube was shaken at 30° for 3 days, and then 4 ml. of the culture was transferred to a 50-ml. flask. To the flask was added 1 ml. of a filter-sterilized substrate solution containing 5 mg./ml. of methyl 7-amino-3-methyl-3-cephem-4-carboxylate at pH 7.0.
The flask was then incubated with shaking at 30° for 16-20 hours to allow the enzyme to deesterify the substrate compound.
The supernatant from the centrifugation was evaluated by paper chromatography as described above, using 4/1 acetonitrile/water as the solvent.
A substrate solution containing about 2 mg./ml. of methyl 7-amino(phenyl)acetamido-3-methyl-3-cephem-4-carboxylate (methyl cephalexin) was prepared in water, at pH 7.2. […] The mixture was shaken at 30° for 4 hours, and was then analyzed by paper chromatography, overlaying the chromatograms on nutrient agar plates seeded with Sarcina lutea.

Compound	Result (zone of inhibition, disk sensitivity) [1]	also measured
CC[C@H]1OC(=O)[C@H](C)[C@@H](O[C@H]2C[C@@](C)(OC)[C@@H](O)[C@H](C)O2)[C@H](C)[C@@H](O[C@@H]2O[C@H](C)C[C@H](N(C)C)[C@H]2O)[C@](C)(O)C[C@@H](C)C(=O)[C@H](C)[C@@H](O)[C@]1(C)O [Erythromycin]	-	
CC(=O)OCC1=C(C(=O)O)N2C(=O)[C@@H](NC(=O)Cc3cccs3)[C@H]2SC1 [Keflin]	-	
CCC[C@@H]1C[C@@H](C(=O)N[C@@H]([C@H]2O[C@H](SC)[C@H](O)[C@@H](O)[C@H]2O)[C@@H](C)O)N(C)C1 [Lincomycin]	-	
C[C@@H]1[C@H](O)[C@@H](C)/C=C/C=C/CC/C=C/C=C/C=C/C=C/C(O[C@H]2O[C@H](C)[C@@H](O)[C@H](N)[C@@H]2O)CC2O[C@](O)(CC(O)C(O)CCC(O)CC(O)CC(O)CC(=O)O[C@H]1C)CC(O)C2C(=O)O (stereo partly shown) [Nystatin]	-	
[H]/N=C(/N)N[C@H]1[C@H](O)[C@@H](O)[C@H](O[C@@H]2O[C@@H](C)[C@](O)(C=O)[C@H]2O[C@@H]2O[C@@H](CO)[C@H](O)[C@@H](O)[C@@H]2NC)[C@@H](N/C(N)=N\[H])[C@@H]1O [Streptomycin]	+	
CN(C)C1C(=O)C(C(N)=O)=C(O)C2(O)C(=O)C3=C(O)c4c(O)cccc4C(C)(O)C3CC12 (stereo not shown) [Tetracycline]	+	
CN[C@H](CC(C)C)C(=O)N[C@H]1C(=O)N[C@@H](CC(N)=O)C(=O)N[C@H]2C(=O)N[C@H]3C(=O)N[C@H](C(=O)N[C@H](C(=O)O)c4cc(O)cc(O)c4-c4cc3ccc4O)[C@H](O)c3ccc(c(Cl)c3)Oc3cc2cc(c3O[C@@H]2O[C@H](CO)[C@@H](O)[C@H](O)[C@H]2O[C@H]2C[C@](C)(N)[C@H](O)[C@H](C)O2)Oc2ccc(cc2Cl)[C@H]1O [Vancomycin]	+	
COC(=O)C1=C(C)CS[C@@H]2C(N)C(=O)N12 (stereo partly shown) [methyl 7-amino-3-methyl-3-cephem-4-carboxylate]		Km value for the enzyme [2]: about 2.3 mg./ml.; lowest reaction rate ([2]; 15°, pH 8.0, Sephacryl-purified enzyme, automatic titrator, corrected for non-enzymatic hydrolysis): 1e-05 mol/min (liter); highest reaction rate ([2]; 30°, pH 8.0, Sephacryl-purified enzyme, automatic titrator, corrected for non-enzymatic hydrolysis): 1.9×10^-5 moles of ester hydrolyzed/(minute) (liter of reaction mixture); activity of cell sonicate supernatant ([2]; supernatant containing 14.4 mg./ml. of protein, Example 15): 2.2×10^-5 moles of ester hydrolyzed/(minute) (liter); deesterification in culture, zone of inhibition after acylation [3]: zone of inhibition
Polymixin B	-	
